Results reported in patent US20230295162A1 (EÖTVÖS LORÁND TUDOMÁNYEGYETEM, priority 2020, published 2023).

Key:
[1] = tested on: MDA-MB-231 human triple-negative breast cancer xenografts; test: Antitumoral effect on subcutaneous MDA-MB-231 tumor xenografts in SCID mice (Example 23); type: in vivo; conditions: intraperitoneal
Protocol: MDA-MB-231 human triple-negative breast cancer xenografts were formed by subcutaneous inoculation of tumor cells into the back of the immunodeficient (SCID) mice. The investigated materials were injected into the animals intraperitoneal every two-three days for 3 weeks.
Forty SCID mice were included in the experiment. Each animal group was kept in separate cage during the experiments. On each cage, there was an identification card with birth date, the date of tumor cell injection, number and gender of animals. The injection of each substance was written on the identification card. Eight animals per substance were used and identified by ear cutting.
MDA-MB-231 human triple-negative breast cancer cells were grown in RPMI-1640 Medium (Sigma Chemical Co., St. Louis, MO), supplemented with 10% fetal bovine serum (Sigma) and 1% penicillin-streptomycin (Sigma) at 37° C. in a humidified atmosphere of 5% CO2. […]
During the experiment weight of the animals and size of the tumors were recorded.
Tumor volume was determined three times a week during the experiment.
Anti-tumor effect of compounds was evaluated also measuring tumor weight in each group after termination of experiment (FIGS. 64 and 65).

[2] = tested on: A-431 (human squamous carcinoma) cells; test: Short term cytotoxicity, MTT assay; type: cell-based; conditions: 1 h treatment then 72 h culture, read-out: cytotoxicity expressed in IC50, A-431
Protocol: (§1) For the short term cytotoxicity studies the A-431 (human squamous carcinoma) and U-87 (human primary glioblastoma) cells were cultured in RPMI-1640 medium supplemented with 10% FCS (fetal calf serum, Sigma Ltd.), 2 mM L-glutamine, and […] gentamicin. Cell cultures were maintained at 37° C. in a humidified atmosphere with 5% CO2. The cells were grown to confluency and were distributed into 96-well plate with initial cell number of 5.0×10^3 per well. After 24 h incubation at 37° C., the cells were treated with the compounds in 200 μL final volume containing 1.0 v/v % DMSO. The cells were incubated with the compounds at 10^−4-10^2 μM concentration range for 1 h. Control cells were treated with serum free medium (RPMI-1640) only or with DMSO (c=1.0 v/v %) at 37° C. for 1 h. After incubation the cells were washed twice with serum free (RPMI-1640) medium. To determine the in vitro cytostatic effect, the cells were cultured for a further 72 h in 10% serum containing medium. MTT-solution ([…], 2 mg/mL, final concentration: 0.37 mg/mL) was added to each well. The respiratory chain [26, 27] and other electron transport systems reduce MTT and thereby form non-water-soluble violet formazane crystals within the cell. […] After 4 h of incubation the cells were centrifuged for 5 min (900 g) and the supernatant was removed. The obtained formazane crystals were dissolved in DMSO ([…]) and optical density (OD) of the samples was measured at λ=540 and 620 nm, respectively, using ELISA Reader (iEMS Reader, Labsystems, Finland). OD620 values were subtracted from OD540 values. The percent of cytostasis was calculated by using the following equation: Cytostatic effect (%)=[1−(ODtreated/ODcontrol)]×100 Values ODtreated and ODcontrol correspond to the optical densities of the treated and the control cells, respectively. In each case two independent experiments were carried out with 4 parallel measurements. […] The curves were defined using Microcal™ Origin1 (version 7.5) software: cytostasis was plotted as a function of concentration, fitted to a sigmoidal curve, and based on this curve, the half maximal inhibitory concentration (IC50) value was determined.

[3] = tested on: U-87 (human primary glioblastoma) cells; test: Short term cytotoxicity, MTT assay; type: cell-based; conditions: 1 h treatment then 72 h culture, read-out: cytotoxicity expressed in IC50, U-87
Protocol: as §1

In the case of `O=C1C2=C(CCN(Cc3cc(F)cc(F)c3)C2)N2CCN=C2N1Cc1ccc(Cl)cc1` [I/124, 4-(4-Chlorobenzyl)-7-(3,5-difluorobenzyl)-2,4,6,7,8,9-hexahydroimidazo[1,2-a]pyrido[3,4-e]pyrimidin-5(1H)-one], the “tumor volume / tumor growth” value ([1]; 3 weeks, vs control (Student's t-test)) is reported as “significant” and the “tumor weight after termination” value ([1]; after termination of experiment, vs control) is reported as “highest, significant inhibition”.

`O=C1C2=C(CCN(Cc3cccc(F)c3)C2)N2CCN=C2N1Cc1ccc(C(F)(F)F)cc1` [I/3, reference compound] gave an IC50 [2] of less than 200 nM and an IC50 [3] of 4.16 µM.
